# Laboratory results taken from ChEMBL document CHEMBL4376865, “Discovery and Characterization of 1H-1,2,3-Triazole Derivatives as Novel Prostanoid EP4 Receptor Antagonists for Cancer Immunotherapy” (J Med Chem, 2020).
# How the values were obtained:
# [1] = target: Prostaglandin E2 receptor EP2 subtype (Homo sapiens, UniProt P43116)
# Description: Antagonist activity at human EP2 expressed in CHO cells coexpressing G16-alpha assessed as intracellular calcium flux preincubated for 15 mins followed by addition of PGE2 by calcium flux assay
# in vitro [2] = details: human, liver microsomes
# [3] = target: T1, Prostaglandin E2 receptor EP1 subtype (Homo sapiens, UniProt P34995); assay: Antagonist activity at human EP1 expressed in CHO cells coexpressing G16-alpha assessed as intracellular calcium flux preincubated for 15 mins followed by addition of PGE2 by calcium flux assay; format: functional, cell-based
# T1 sequence (P34995 whole entry): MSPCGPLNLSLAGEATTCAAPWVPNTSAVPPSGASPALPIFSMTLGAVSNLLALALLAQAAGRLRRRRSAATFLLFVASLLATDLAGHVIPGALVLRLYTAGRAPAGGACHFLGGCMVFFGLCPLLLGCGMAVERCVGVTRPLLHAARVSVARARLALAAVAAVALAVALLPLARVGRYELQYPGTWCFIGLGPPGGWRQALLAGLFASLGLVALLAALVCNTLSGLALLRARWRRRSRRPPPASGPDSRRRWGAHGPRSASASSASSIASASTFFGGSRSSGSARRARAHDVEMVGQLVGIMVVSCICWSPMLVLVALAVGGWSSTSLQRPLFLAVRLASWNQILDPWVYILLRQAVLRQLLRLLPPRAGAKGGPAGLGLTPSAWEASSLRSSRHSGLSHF
# [4] = Metabolic stability in human liver microsomes assessed as compound remaining at 10 uM incubated for 1 hr
# [5] = target: T2, Prostaglandin E2 receptor EP3 subtype (Homo sapiens, UniProt P43115)
# T2 sequence (P43115 whole entry): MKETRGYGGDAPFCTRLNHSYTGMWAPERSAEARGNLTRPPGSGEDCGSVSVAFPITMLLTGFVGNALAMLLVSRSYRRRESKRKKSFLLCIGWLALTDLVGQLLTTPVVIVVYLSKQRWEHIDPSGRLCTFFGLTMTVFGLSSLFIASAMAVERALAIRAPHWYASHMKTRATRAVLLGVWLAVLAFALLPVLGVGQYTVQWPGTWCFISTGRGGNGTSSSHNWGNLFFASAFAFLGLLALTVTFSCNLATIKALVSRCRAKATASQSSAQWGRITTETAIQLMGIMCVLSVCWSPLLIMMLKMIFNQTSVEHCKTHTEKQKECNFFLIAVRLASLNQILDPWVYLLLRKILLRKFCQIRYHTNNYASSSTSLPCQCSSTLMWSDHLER
# Description: Antagonist activity at human EP3 expressed in CHO cells coexpressing G16-alpha assessed as intracellular calcium flux preincubated for 15 mins followed by addition of PGE2 by calcium flux assay
# [6] = target: Prostaglandin E2 receptor EP4 subtype (Mus musculus, UniProt P32240); assay: Antagonist activity at mouse EP4 expressed in CHO cells coexpressing G16-alpha assessed as intracellular calcium flux preincubated for 15 mins followed by addition of PGE2 by calcium flux assay; format: functional, cell-based
# in vitro [7] = details: human, liver microsomes; remark: listed apart in the source
# [8] = target: Prostaglandin E2 receptor EP4 subtype (Homo sapiens, UniProt P35408)
# Description: Antagonist activity at human EP4 expressed in CHO cells coexpressing G16-alpha assessed as intracellular calcium flux preincubated for 15 mins followed by addition of PGE2 by calcium flux assay
# Cytochrome P450 3A4 = Cytochrome P450 3A4 (Homo sapiens, UniProt P08684); assay: Inhibition of CYP3A4 in human liver microsomes at 20 uM using testosterone as substrate incubated for 60 mins by HPLC analysis; format: ADME; details: 1 h
# CYP2B6 = target: T3, CYP2B6 (Homo sapiens, UniProt P20813); assay: Inhibition of CYP2B6 in human liver microsomes at 20 uM incubated for 60 mins by HPLC analysis relative to control; format: ADME
# T3 sequence (P20813 whole entry): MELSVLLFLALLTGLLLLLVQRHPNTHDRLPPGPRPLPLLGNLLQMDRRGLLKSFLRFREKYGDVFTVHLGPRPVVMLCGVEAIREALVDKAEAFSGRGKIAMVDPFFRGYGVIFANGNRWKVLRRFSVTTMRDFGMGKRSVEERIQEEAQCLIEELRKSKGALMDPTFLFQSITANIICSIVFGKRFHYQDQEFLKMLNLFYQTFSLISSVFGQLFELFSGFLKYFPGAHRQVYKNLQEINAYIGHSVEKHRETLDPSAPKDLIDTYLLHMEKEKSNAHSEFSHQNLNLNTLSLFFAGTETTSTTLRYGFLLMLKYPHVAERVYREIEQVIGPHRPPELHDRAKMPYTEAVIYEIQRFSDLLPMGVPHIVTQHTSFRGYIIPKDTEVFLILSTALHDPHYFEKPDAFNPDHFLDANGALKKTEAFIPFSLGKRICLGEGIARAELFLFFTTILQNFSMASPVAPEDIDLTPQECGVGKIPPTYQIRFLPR
# CYP2D6 = CYP2D6 (Homo sapiens, UniProt P10635); assay: Inhibition of CYP2D6 in human liver microsomes at 20 uM using dextromethorphan as substrate incubated for 60 mins by HPLC analysis relative to control; format: ADME; details: probe dextromethorphan
# CYP1A2 = target: T4, CYP1A2 (Homo sapiens, UniProt P05177); assay: Inhibition of CYP1A2 in human liver microsomes at 20 uM using phenacetin as substrate incubated for 30 mins by HPLC analysis relative to control; format: ADME; details: probe phenacetin
# T4 sequence (P05177 whole entry): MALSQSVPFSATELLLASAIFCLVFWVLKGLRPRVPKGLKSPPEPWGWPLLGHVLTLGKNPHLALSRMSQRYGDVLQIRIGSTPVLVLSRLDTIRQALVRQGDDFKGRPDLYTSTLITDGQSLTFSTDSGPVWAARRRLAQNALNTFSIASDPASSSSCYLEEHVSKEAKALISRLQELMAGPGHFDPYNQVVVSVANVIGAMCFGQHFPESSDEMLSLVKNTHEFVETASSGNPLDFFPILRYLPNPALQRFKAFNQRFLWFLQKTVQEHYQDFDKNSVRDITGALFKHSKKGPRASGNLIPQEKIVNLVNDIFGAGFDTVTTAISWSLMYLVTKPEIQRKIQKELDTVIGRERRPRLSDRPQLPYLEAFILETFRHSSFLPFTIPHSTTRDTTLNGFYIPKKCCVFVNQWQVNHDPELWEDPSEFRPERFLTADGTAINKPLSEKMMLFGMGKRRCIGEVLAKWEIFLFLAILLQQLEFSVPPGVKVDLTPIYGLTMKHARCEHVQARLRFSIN
# CYP2E1 = CYP2E1 (Homo sapiens, UniProt P05181); assay: Inhibition of CYP2E1 in human liver microsomes at 20 uM using chlorzoxazone as substrate incubated for 60 mins by HPLC analysis relative to control; format: ADME; details: probe chlorzoxazone
# CYP2C9 = CYP2C9 (Homo sapiens, UniProt P11712); assay: Inhibition of CYP2C9 in human liver microsomes at 20 uM using tolbutamide as substrate incubated for 60 mins by HPLC analysis relative to control; format: ADME; details: probe tolbutamide
# Sequence of CYP2C9 (P11712 whole entry): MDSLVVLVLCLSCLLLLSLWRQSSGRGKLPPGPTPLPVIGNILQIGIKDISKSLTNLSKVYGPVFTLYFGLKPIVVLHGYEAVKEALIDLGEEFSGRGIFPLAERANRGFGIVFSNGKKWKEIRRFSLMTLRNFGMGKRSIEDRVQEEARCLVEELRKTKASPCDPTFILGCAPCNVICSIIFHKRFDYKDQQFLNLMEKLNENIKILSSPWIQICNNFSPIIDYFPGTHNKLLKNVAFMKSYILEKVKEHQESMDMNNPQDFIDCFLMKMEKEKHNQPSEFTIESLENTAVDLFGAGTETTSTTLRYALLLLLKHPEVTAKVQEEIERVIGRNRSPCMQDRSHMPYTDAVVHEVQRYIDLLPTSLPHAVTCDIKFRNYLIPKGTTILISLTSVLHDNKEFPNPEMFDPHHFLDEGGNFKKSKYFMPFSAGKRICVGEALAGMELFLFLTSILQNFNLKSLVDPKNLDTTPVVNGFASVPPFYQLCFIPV
# Sequence of Prostaglandin E2 receptor EP4 subtype (Homo sapiens, UniProt P35408) (P35408 whole entry): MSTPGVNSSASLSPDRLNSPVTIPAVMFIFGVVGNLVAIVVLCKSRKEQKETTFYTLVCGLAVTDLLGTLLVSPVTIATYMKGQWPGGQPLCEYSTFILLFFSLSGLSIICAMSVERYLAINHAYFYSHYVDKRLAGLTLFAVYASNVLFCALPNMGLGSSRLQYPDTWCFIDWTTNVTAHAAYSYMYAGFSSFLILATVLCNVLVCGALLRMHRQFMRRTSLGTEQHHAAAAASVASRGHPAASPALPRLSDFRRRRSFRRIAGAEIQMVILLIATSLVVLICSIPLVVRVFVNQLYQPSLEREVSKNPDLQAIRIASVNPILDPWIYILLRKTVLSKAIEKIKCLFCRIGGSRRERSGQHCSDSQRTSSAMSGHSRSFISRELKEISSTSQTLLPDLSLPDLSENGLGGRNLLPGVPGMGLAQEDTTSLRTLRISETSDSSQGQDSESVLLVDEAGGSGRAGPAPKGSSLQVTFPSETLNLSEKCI
# Sequence of Prostaglandin E2 receptor EP4 subtype (Mus musculus, UniProt P32240) (P32240 whole entry): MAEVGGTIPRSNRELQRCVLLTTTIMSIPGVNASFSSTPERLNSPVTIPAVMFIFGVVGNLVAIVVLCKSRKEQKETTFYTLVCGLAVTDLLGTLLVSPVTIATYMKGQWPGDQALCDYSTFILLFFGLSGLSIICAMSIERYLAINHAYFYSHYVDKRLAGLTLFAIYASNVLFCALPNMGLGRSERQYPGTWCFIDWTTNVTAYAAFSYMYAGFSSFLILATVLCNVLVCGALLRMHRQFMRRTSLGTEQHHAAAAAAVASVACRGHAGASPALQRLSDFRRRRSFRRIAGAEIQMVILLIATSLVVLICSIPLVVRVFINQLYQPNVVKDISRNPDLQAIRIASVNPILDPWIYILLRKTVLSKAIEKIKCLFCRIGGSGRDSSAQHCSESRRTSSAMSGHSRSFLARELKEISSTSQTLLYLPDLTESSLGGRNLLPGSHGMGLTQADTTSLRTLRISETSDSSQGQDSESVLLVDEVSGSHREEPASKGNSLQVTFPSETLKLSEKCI
# Sequence of Prostaglandin E2 receptor EP2 subtype (P43116 whole entry): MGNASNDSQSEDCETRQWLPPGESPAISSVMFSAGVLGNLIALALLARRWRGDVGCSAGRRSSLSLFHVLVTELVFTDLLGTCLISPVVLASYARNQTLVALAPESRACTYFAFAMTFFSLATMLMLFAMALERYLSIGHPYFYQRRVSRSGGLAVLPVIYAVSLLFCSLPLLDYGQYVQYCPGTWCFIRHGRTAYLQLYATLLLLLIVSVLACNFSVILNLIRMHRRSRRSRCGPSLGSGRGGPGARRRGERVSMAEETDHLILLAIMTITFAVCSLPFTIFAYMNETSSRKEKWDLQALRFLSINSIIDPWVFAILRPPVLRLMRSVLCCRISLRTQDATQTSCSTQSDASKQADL
# Sequence of CYP2D6 (P10635 whole entry): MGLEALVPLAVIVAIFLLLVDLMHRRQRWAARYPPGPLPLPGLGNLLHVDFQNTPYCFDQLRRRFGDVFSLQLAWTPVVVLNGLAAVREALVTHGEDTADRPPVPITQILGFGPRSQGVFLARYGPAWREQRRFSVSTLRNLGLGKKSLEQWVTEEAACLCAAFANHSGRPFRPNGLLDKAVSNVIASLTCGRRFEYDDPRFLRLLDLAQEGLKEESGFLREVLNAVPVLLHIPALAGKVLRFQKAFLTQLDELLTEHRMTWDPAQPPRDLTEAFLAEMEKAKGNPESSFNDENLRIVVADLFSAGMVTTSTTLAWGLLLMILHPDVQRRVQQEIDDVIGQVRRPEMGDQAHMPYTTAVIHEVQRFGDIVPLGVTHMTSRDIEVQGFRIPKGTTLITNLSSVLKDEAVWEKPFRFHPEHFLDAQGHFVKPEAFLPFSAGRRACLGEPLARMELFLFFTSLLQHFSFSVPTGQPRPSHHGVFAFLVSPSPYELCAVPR
# Sequence of Cytochrome P450 3A4 (P08684 whole entry): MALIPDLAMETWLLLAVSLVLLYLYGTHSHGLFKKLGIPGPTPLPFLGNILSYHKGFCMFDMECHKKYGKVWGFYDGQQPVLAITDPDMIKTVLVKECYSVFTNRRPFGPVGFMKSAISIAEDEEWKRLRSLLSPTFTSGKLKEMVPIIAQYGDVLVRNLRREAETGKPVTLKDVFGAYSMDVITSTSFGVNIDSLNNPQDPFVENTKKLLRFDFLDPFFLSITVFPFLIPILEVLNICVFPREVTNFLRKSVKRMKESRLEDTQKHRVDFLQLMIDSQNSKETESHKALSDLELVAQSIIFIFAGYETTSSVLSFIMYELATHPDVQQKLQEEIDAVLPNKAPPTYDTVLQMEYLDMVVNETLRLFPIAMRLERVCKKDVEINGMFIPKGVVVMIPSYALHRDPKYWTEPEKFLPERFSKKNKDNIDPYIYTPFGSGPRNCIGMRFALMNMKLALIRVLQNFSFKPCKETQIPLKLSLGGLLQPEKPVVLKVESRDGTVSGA
# Sequence of CYP2E1 (P05181 whole entry): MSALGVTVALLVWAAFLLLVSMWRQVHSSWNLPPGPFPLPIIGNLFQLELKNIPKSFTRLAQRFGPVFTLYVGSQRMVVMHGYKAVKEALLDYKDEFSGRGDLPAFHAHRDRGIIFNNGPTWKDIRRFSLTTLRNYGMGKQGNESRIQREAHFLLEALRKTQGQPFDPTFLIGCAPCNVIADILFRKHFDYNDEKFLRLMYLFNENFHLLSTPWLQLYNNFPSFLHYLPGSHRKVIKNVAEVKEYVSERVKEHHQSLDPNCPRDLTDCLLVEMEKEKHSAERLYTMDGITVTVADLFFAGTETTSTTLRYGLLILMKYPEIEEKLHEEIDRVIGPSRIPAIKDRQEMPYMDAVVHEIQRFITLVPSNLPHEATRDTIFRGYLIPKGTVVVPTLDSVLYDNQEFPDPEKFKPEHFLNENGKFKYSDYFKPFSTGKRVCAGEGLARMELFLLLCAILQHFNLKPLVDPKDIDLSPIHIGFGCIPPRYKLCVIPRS
smiles,measurement,setting,value
C[C@H](NC(=O)c1c(-c2ccccc2)nnn1Cc1ccc(C(F)(F)F)cc1)c1ccc(C(=O)O)cc1,IC50,[1],> 10000 nM
same,"microsomal CLint at 1 h, 10 µM",in vitro [2],< 9.6 µL/min/mg
same,IC50,[3],> 10000 nM
same,"remaining at 1 h, 10 µM",[4],84.9%
same,IC50,[5],> 10000 nM
same,IC50,[6],906 nM
same,"half-life at 1 h, 10 µM",in vitro [7],> 2.42 h
same,IC50,[8],8.5 nM
C[C@H](NC(=O)c1c(C(F)(F)F)nnn1Cc1ccc(C(F)(F)F)cc1)c1ccc(C(=O)O)cc1,IC50,[8],225 nM
Cc1nnn(Cc2ccc(C(F)(F)F)cc2)c1C(=O)N[C@@H](C)c1ccc(C(=O)O)cc1,IC50,[8],> 10000 nM
C[C@H](NC(=O)c1c(-c2ccccc2)nnn1CC1CCCCC1)c1ccc(C(=O)O)cc1,IC50,[8],> 10000 nM
C[C@H](NC(=O)c1c(-c2ccccc2)nnn1CCOc1ccc(C(F)(F)F)cc1)c1ccc(C(=O)O)cc1,IC50,[8],49.1 nM
C[C@H](NC(=O)c1c(-c2ccccc2)nnn1CCOc1ccc(F)cc1)c1ccc(C(=O)O)cc1,IC50,[1],> 10000 nM
same,IC50,[3],> 10000 nM
same,IC50,[5],> 10000 nM
same,IC50,[6],132 nM
C[C@H](NC(=O)c1nnn(CCc2ccc(F)cc2)c1C(F)(F)F)c1ccc(C(=O)O)cc1,IC50,[8],> 10000 nM
C[C@H](NC(=O)c1nnn(Cc2ccc(C(F)(F)F)cc2)c1C(F)(F)F)c1ccc(C(=O)O)cc1,IC50,[8],> 10000 nM
C/C=C/c1nnn(Cc2ccc(C(F)(F)F)cc2)c1C(=O)N[C@H](C)c1ccc(C(=O)O)cc1,IC50,[8],> 1000 nM
C[C@H](NC(=O)c1c(C2CCCCC2)nnn1Cc1ccc(C(F)(F)F)cc1)c1ccc(C(=O)O)cc1,IC50,[8],161 nM
C[C@H](NC(=O)c1c(C2CCC2)nnn1Cc1ccc(C(F)(F)F)cc1)c1ccc(C(=O)O)cc1,IC50,[8],75.3 nM
COc1ccc(Cn2nnc(-c3ccccc3)c2C(=O)N[C@@H](C)c2ccc(C(=O)O)cc2)cc1,IC50,[8],9.3 nM
CCc1nnn(Cc2ccc(C(F)(F)F)cc2)c1C(=O)N[C@@H](C)c1ccc(C(=O)O)cc1,IC50,[8],> 10000 nM
COc1ccc(Cn2nnc(-c3ccccc3)c2C(=O)N[C@@H](C)c2ccc(C(=O)O)cc2)cc1OC,IC50,[8],119 nM
C/C=C/c1nnn(Cc2ccc(C(F)(F)F)cc2)c1C(=O)NCC1CCC(C(=O)O)CC1 (stereo not drawn),IC50,[6],220 nM
C[C@H](NC(=O)c1c(-c2ccc(F)cc2)nnn1Cc1ccc(C(F)(F)F)cc1)c1ccc(C(=O)O)cc1,IC50,[8],57.9 nM
C[C@H](NC(=O)c1c(C2=CCCC2)nnn1Cc1ccc(C(F)(F)F)cc1)c1ccc(C(=O)O)cc1,IC50,[1],> 10000 nM
same,IC50,[3],> 10000 nM
same,IC50,[5],> 10000 nM
same,IC50,[6],400 nM
C[C@H](NC(=O)c1c(-c2ccccc2)nnn1Cc1ccc(F)cc1)c1ccc(C(=O)O)cc1,IC50,[8],330 nM
C[C@H](NC(=O)c1nnn(Cc2cccc(C(F)(F)F)c2)c1C(F)(F)F)c1ccc(C(=O)O)cc1,IC50,[8],> 10000 nM
C[C@H](NC(=O)c1c(C2=CCCCC2)nnn1Cc1ccc(C(F)(F)F)cc1)c1ccc(C(=O)O)cc1,IC50,[8],183 nM
C[C@H](NC(=O)c1cnnn1Cc1ccc(C(F)(F)F)cc1)c1ccc(C(=O)O)cc1,IC50,[8],> 10000 nM
COc1cccc(Cn2nnc(-c3ccccc3)c2C(=O)N[C@@H](C)c2ccc(C(=O)O)cc2)c1,IC50,[8],96.8 nM
Cc1ccc(-c2nnn(Cc3ccc(C(F)(F)F)cc3)c2C(=O)N[C@@H](C)c2ccc(C(=O)O)cc2)s1,IC50,[1],> 10000 nM
same,IC50,[3],> 10000 nM
same,IC50,[5],> 10000 nM
same,IC50,[6],42.1 nM
C/C=C/c1nnn(Cc2ccc(C(F)(F)F)cc2)c1C(=O)NCc1ccc(C(=O)O)cc1,IC50,[6],130 nM
same,IC50,[8],10.5 nM
C/C=C/c1nnn(Cc2ccc(C(F)(F)F)cc2)c1C(=O)NC1(c2ccc(C(=O)O)cc2)CC1,IC50,[6],33.7 nM
same,IC50,[8],13.9 nM
C[C@H](NC(=O)c1c(-c2ccoc2)nnn1Cc1ccc(C(F)(F)F)cc1)c1ccc(C(=O)O)cc1,IC50,[1],> 10000 nM
same,"microsomal CLint at 1 h, 10 µM",in vitro [2],< 9.6 µL/min/mg
same,IC50,[3],> 10000 nM
same,"remaining at 1 h, 10 µM",[4],87.9%
same,IC50,[5],> 10000 nM
same,IC50,[6],57.6 nM
same,"half-life at 1 h, 10 µM",in vitro [7],> 2.42 h
same,IC50,[8],45.6 nM
CC#Cc1nnn(Cc2ccc(C(F)(F)F)cc2)c1C(=O)N[C@@H](C)c1ccc(C(=O)O)cc1,inhibition (INH),Cytochrome P450 3A4,Not Active
same,IC50,[1],> 10000 nM
same,IC50,[3],> 10000 nM
same,"inhibition at 1 h, 20 µM",CYP2B6,34%
same,"inhibition at 1 h, 20 µM",CYP2D6,38%
same,"inhibition at 0.5 h, 20 µM",CYP1A2,82%
same,IC50,[6],70.9 nM
same,"inhibition at 1 h, 20 µM",CYP2E1,76%
same,"inhibition at 1 h, 20 µM",CYP2C9,69%
same,IC50,[8],32 nM
C[C@H](NC(=O)c1c(C(F)(F)F)nnn1CCc1ccc(F)cc1)c1ccc(C(=O)O)cc1,IC50,[8],> 10000 nM
C[C@H](NC(=O)c1c(-c2ccccc2)nnn1CCOc1cccc(C(F)(F)F)c1)c1ccc(C(=O)O)cc1,inhibition (INH),Cytochrome P450 3A4,Not Active
same,IC50,[1],> 10000 nM
same,IC50,[3],> 10000 nM
same,"inhibition at 1 h, 20 µM",CYP2B6,51%
same,"inhibition at 1 h, 20 µM",CYP2D6,30%
same,"inhibition at 0.5 h, 20 µM",CYP1A2,30%
same,IC50,[5],> 10000 nM
same,IC50,[6],135 nM
same,"inhibition at 1 h, 20 µM",CYP2E1,67%
same,"inhibition at 1 h, 20 µM",CYP2C9,67%
CCCc1c(C(=O)N[C@@H](C)c2ccc(C(=O)O)cc2)nnn1Cc1ccc(C(F)(F)F)cc1,IC50,[8],> 10000 nM
